# Assay: physchem
# Settings: octanol/buffer
row,Structure (SMILES),logP
1,O=C([C@H]1CNCC(=O)N1c1ccc(CCCOc2c(F)ccc(F)c2F)cc1)N(Cc1ccc(Cl)cc1)C1CC1,5.73
2,Cc1cc(Cl)c(OCCOc2ccc(N3C(=O)CNC[C@@H]3C(=O)N(C)Cc3ccccc3)cc2)c(Cl)c1,4.59
3,COC(=O)NCc1ccc(Cl)c(CN(C(=O)[C@H]2CNCC(=O)N2c2cnc(OCCCOCc3ccccc3OC)nc2)C2CC2)c1,2.8
4,O=C([C@H]1CNCC(=O)N1c1ccc(CCCOc2c(F)ccc(F)c2F)cc1)N(Cc1cc(CNCC(F)F)ccc1Cl)C1CC1,5.96
5,CN(Cc1ccccc1)C(=O)[C@H]1CNCC(=O)N1c1ccc(OCCCOCc2ccccc2)cc1,3.86
6,CCNCc1ccc(Cl)c(CN(C(=O)[C@H]2CNCC(=O)N2c2ccc(CCCOc3c(F)ccc(F)c3F)cc2)C2CC2)c1,5.89
7,Cc1cc(Cl)c(OCCOc2ccc(N3C(=O)CNC[C@@H]3C(=O)N(C)CCc3ccccc3)cc2)c(Cl)c1,4.68
8,COc1ccccc1COCCCOc1ncc(N2C(=O)CNC[C@@H]2C(=O)N(Cc2ccnc(C)c2OC)C2CC2)cn1,1.44
9,COC(=O)NCc1ccc(Cl)c(CN(C(=O)[C@H]2CNCC(=O)N2c2ccc(OCCOc3c(Cl)cc(C)cc3Cl)cc2)C2CC2)c1,5.58
10,COc1ccccc1COCCCOc1ncc(N2C(=O)CNC[C@@H]2C(=O)N(Cc2cccc(OC)c2C)C2CC2)cn1,2.71
11,CN(CCc1ccccc1)C(=O)[C@H]1CNCC(=O)N1c1ccc(CCCOc2c(F)ccc(F)c2F)cc1,4.57
12,Cc1cc(Cl)c(OCCOc2ccc(N3C(=O)CNC[C@@H]3C(=O)N(Cc3cc(CNC4CC4)ccc3Cl)C3CC3)cn2)c(Cl)c1,5.48
13,COc1ccccc1COCCCOc1ncc(N2C(=O)CNC[C@@H]2C(=O)N(Cc2cc(CCNCC(F)F)ccc2Cl)C2CC2)cn1,3.37
14,CCC(=O)NCc1ccc(Cl)c(CN(C(=O)[C@H]2CNCC(=O)N2c2ccc(OCCOc3c(Cl)cc(C)cc3Cl)nc2)C2CC2)c1,4.94
15,O=C(NCc1ccc(Cl)c(CN(C(=O)[C@H]2CNCC(=O)N2c2ccc(CCCOc3cccc(Cl)c3)cc2)C2CC2)c1)C1CC1,5.72
16,COCCCc1cc(CN(C(=O)[C@H]2CNCC(=O)N2c2ccc(OCCOc3c(Cl)cc(C)cc3Cl)cc2)C2CC2)c(Cl)c[n+]1[O-],5.43
17,O=C(NCc1ccc(Cl)c(CN(C(=O)[C@H]2CNCC(=O)N2c2ccc(CCCOc3c(F)ccc(F)c3F)cc2)C2CC2)c1)C1CC1,5.54
18,O=C(CC(F)(F)F)NCCc1ccc(Cl)c(CN(C(=O)[C@H]2CNCC(=O)N2c2ccc(CCCOc3c(F)ccc(F)c3F)cc2)C2CC2)c1,6
19,Cc1cc(Cl)c(OCCOc2ccc(N3C(=O)CNC[C@@H]3C(=O)N(Cc3cc(CNCCF)ccc3Cl)C3CC3)cc2)c(Cl)c1,5.77
20,COCCc1ccc(Cl)c(CN(C(=O)[C@@H]2CNCC(=O)N2c2cnc(OCCCOCc3ccccc3OC)nc2)C2CC2)c1,3.26
21,Cc1cc(Cl)c(OCCOc2ccc(N3C(=O)CNC[C@@H]3C(=O)N(Cc3cccc(Cl)c3Cl)C3CC3)cc2)c(Cl)c1,6.42
22,Cc1cc(Cl)c(OCCOc2ccc(N3C(=O)CNC[C@@H]3C(=O)N(C)Cc3ccccc3Cl)cc2)c(Cl)c1,5.18
23,Cc1cc(Cl)c(OCCOc2ccc(N3C(=O)CNC[C@@H]3C(=O)N(Cc3cccc(C)c3C)C3CC3)cn2)c(Cl)c1,5.01
24,COc1cccc(CN(C(=O)[C@H]2CNCC(=O)N2c2ccc(OCCOc3c(Cl)cc(C)cc3Cl)cc2)C2CC2)c1C,5.49
25,CN(Cc1ccccc1)C(=O)[C@H]1CNCC(=O)N1c1ccc(CCCOc2cccc(Cl)c2)cc1,4.66

row,Structure (SMILES),logP
1,COc1ccccc1COCCCOc1ccc(N2C(=O)CNC[C@@H]2C(=O)N(Cc2cc(CCNC(=O)COC(C)(C)C)ccc2Cl)C2CC2)cc1,5.61
2,COCCCc1cc(CN(C(=O)[C@H]2CNCC(=O)N2c2ccc(OCCCOCc3ccccc3)cc2)C2CC2)c(Cl)c[n+]1[O-],4.71
3,COCCCc1cc(CN(C(=O)[C@H]2CNCC(=O)N2c2ccc(OCCCOCc3ccccc3)cc2)C2CC2)c(Cl)cn1,4.49
4,CNC(=O)OCc1ccc(Cl)c(CN(C(=O)[C@H]2CNCC(=O)N2c2cnc(OCCCOCc3ccccc3OC)nc2)C2CC2)c1,2.8
5,CNCCc1ccc(Cl)c(CN(C(=O)[C@H]2CNCC(=O)N2c2ccc(CCCOc3cccc(Cl)c3)cc2)C2CC2)c1,5.81
6,O=C(CC(F)(F)F)NCCc1ccc(Cl)c(CN(C(=O)[C@H]2CNCC(=O)N2c2ccc(CCCOc3cccc(Cl)c3)cc2)C2CC2)c1,6.18
7,CCNCCc1ccc(Cl)c(CN(C(=O)[C@H]2CNCC(=O)N2c2ccc(OCCOc3c(Cl)cc(C)cc3Cl)cc2)C2CC2)c1,6.08
8,COC(=O)NCc1ccc(Cl)c(CN(C(=O)[C@H]2CNCC(=O)N2c2ccc(CCCOc3c(F)ccc(F)c3F)cc2)C2CC2)c1,5.48
9,COc1c(CN(C(=O)[C@H]2CNCC(=O)N2c2ccc(OCCOc3c(Cl)cc(C)cc3Cl)cc2)C2CC2)ccnc1C,4.22
10,COc1c(CN(C(=O)[C@H]2CNCC(=O)N2c2ccc(CCCOc3c(F)ccc(F)c3F)cc2)C2CC2)ccnc1C,4.12
11,Cc1cc(Cl)c(OCCOc2ccc(N3C(=O)CNC[C@@H]3C(=O)N(Cc3ccc(Cl)cc3)C3CC3)cc2)c(Cl)c1,5.83
12,Cc1cc(Cl)c(OCCOc2ccc(N3C(=O)CNC[C@@H]3C(=O)N(C)CCCc3ccccc3)cc2)c(Cl)c1,5.12
13,O=C([C@H]1CNCC(=O)N1c1ccc(CCCOc2c(F)ccc(F)c2F)cc1)N(Cc1cc(CNCCF)ccc1Cl)C1CC1,5.66
14,COCCCc1cc(CN(C(=O)[C@H]2CNCC(=O)N2c2cnc(OCCCOCc3ccccc3OC)nc2)C2CC2)c(Cl)cn1,2.43
15,CNC(=O)OCCc1ccc(Cl)c(CN(C(=O)[C@H]2CNCC(=O)N2c2ccc(CCCOc3c(F)ccc(F)c3F)cc2)C2CC2)c1,5.56
16,COc1ccccc1COCCCOc1ncc(N2C(=O)CNC[C@@H]2C(=O)N(Cc2cc(CCNC(C)=O)ccc2Cl)C2CC2)cn1,2.6
17,Cc1cc(Cl)c(OCCOc2ccc(N3C(=O)CNC[C@@H]3C(=O)N(Cc3cc(CNC(=O)C4CC4)ccc3Cl)C3CC3)cn2)c(Cl)c1,4.82
18,Cc1cc(Cl)c(OCCOc2ccc(N3C(=O)CNC[C@@H]3C(=O)N(C)CCCc3ccccc3)cn2)c(Cl)c1,4.29
19,COc1ccccc1COCCCOc1ncc(N2C(=O)CNC[C@@H]2C(=O)N(Cc2ccc(Cl)cc2)C2CC2)cn1,3.05
20,CNCc1ccc(Cl)c(CN(C(=O)[C@H]2CNCC(=O)N2c2ccc(OCCOc3c(Cl)cc(C)cc3Cl)cc2)C2CC2)c1,5.65
21,COc1ccccc1COCCCOc1ccc(N2C(=O)CNC[C@@H]2C(=O)N(Cc2cc(CCNC3CC3)ccc2Cl)C2CC2)cc1,5.62
22,COCCCc1ccc(Cl)c(CN(C(=O)[C@H]2CNCC(=O)N2c2ccc(OCCOc3c(Cl)cc(C)cc3Cl)cc2)C2CC2)c1,6.49
23,Cc1cc(Cl)c(OCCOc2ccc(N3C(=O)CNC[C@@H]3C(=O)N(Cc3cc(CNC4CC4)ccc3Cl)C3CC3)cc2)c(Cl)c1,6.3
24,O=C([C@H]1CNCC(=O)N1c1ccc(CCCOc2c(F)ccc(F)c2F)cc1)N(Cc1cccc(Cl)c1)C1CC1,5.77
25,Cc1cc(Cl)c(OCCOc2ccc(N3C(=O)CNC[C@@H]3C(=O)N(Cc3cc(CCNC(=O)CC(F)(F)F)ccc3Cl)C3CC3)cc2)c(Cl)c1,6.11

# The next lines start with the values.
row,logP,Structure (SMILES)
1,4.73,Cc1cccc(CN(C(=O)[C@H]2CNCC(=O)N2c2ccc(COC(=O)c3ccccc3)cc2)C2CC2)c1C
2,4.82,CCNC(=O)Cc1ccc(Cl)c(CN(C(=O)[C@H]2CNCC(=O)N2c2ccc(OCCCOCc3ccccc3OC)cc2)C2CC2)c1
3,5.29,O=C(OCc1ccc(N2C(=O)CNC[C@@H]2C(=O)N(Cc2cc(CCNC3CC3)ccc2Cl)C2CC2)cc1)c1ccccc1
4,3.05,COc1ccccc1COCCCOc1ncc(N2C(=O)CNC[C@@H]2C(=O)N(Cc2cccc(C)c2C)C2CC2)cn1
5,4.55,CNCc1ccc(Cl)c(CN(C(=O)[C@H]2CNCC(=O)N2c2ccc(COC(=O)c3ccccc3)cc2)C2CC2)c1
6,5.43,O=C([C@H]1CNCC(=O)N1c1ccc(OCCCOCc2ccccc2)cc1)N(Cc1cc(CCNCC(F)F)ccc1Cl)C1CC1
7,5.27,COCCc1ccc(Cl)c(CN(C(=O)[C@H]2CNCC(=O)N2c2ccc(OCCCOCc3ccccc3OC)cc2)C2CC2)c1
8,5.32,O=C(OCc1ccc(N2C(=O)CNC[C@@H]2C(=O)N(Cc2cccc(Cl)c2Cl)C2CC2)cc1)c1ccccc1
9,5.11,Cc1cccc(CN(C(=O)[C@H]2CNCC(=O)N2c2ccc(OCCCOCc3ccccc3)cc2)C2CC2)c1C
10,4.39,COc1cccc(CN(C(=O)[C@H]2CNCC(=O)N2c2ccc(COC(=O)c3ccccc3)cc2)C2CC2)c1C
11,5.32,COCCc1ccc(Cl)c(CN(C(=O)[C@H]2CNCC(=O)N2c2ccc(OCCCOCc3ccccc3)cc2)C2CC2)c1
12,4.81,O=C(Cc1ccc(Cl)c(CN(C(=O)[C@H]2CNCC(=O)N2c2ccc(COC(=O)c3ccccc3)cc2)C2CC2)c1)NC1CC1
13,4.92,O=C(CC(F)(F)F)NCc1ccc(Cl)c(CN(C(=O)[C@H]2CNCC(=O)N2c2ccc(COC(=O)c3ccccc3)cc2)C2CC2)c1
14,5.94,O=C([C@H]1CNCC(=O)N1c1ccc(CCCOc2cccc(Cl)c2)cc1)N(Cc1cccc(Cl)c1)C1CC1
15,4.29,COc1c(CN(C(=O)[C@H]2CNCC(=O)N2c2ccc(CCCOc3cccc(Cl)c3)cc2)C2CC2)ccnc1C
16,4.81,COC(=O)NCc1ccc(Cl)c(CN(C(=O)[C@H]2CNCC(=O)N2c2ccc(OCCCOCc3ccccc3OC)cc2)C2CC2)c1
17,5.06,COc1ccccc1COCCCOc1ccc(N2C(=O)CNC[C@@H]2C(=O)N(Cc2cccc(C)c2C)C2CC2)cc1
18,5.11,O=C([C@H]1CNCC(=O)N1c1ccc(OCCCOCc2ccccc2)cc1)N(Cc1ccc(Cl)cc1)C1CC1
19,5.37,CC(=O)NCc1ccc(Cl)c(CN(C(=O)[C@H]2CNCC(=O)N2c2ccc(CCCOc3cccc(Cl)c3)cc2)C2CC2)c1
20,4.87,CCNC(=O)Cc1ccc(Cl)c(CN(C(=O)[C@H]2CNCC(=O)N2c2ccc(OCCCOCc3ccccc3)cc2)C2CC2)c1
21,4.62,CNC(=O)CCc1ccc(Cl)c(CN(C(=O)[C@H]2CNCC(=O)N2c2ccc(OCCCOCc3ccccc3)cc2)C2CC2)c1
22,5.73,Cc1cccc(CN(C(=O)[C@H]2CNCC(=O)N2c2ccc(CCCOc3c(F)ccc(F)c3F)cc2)C2CC2)c1C
23,4.48,CNC(=O)OCc1ccc(Cl)c(CN(C(=O)[C@H]2CNCC(=O)N2c2ccc(COC(=O)c3ccccc3)cc2)C2CC2)c1
24,4.33,COCCCc1cc(CN(C(=O)[C@H]2CNCC(=O)N2c2ccc(COC(=O)c3ccccc3)cc2)C2CC2)c(Cl)c[n+]1[O-]

# Source: ChEMBL document CHEMBL1944551, “An integrated computational workflow for efficient and quantitative modeling of renin inhibitors” (Bioorg Med Chem, 2012)
